Data: patent US10640545B2 (THE GOVERNORS OF THE UNIVERSITY OF ALBERTA, priority 2017, dated 2020)
Several values for one entry are separate records, joined by “and”; a condition that tells them apart may be missing. Equal values may be shown once. Where a SMILES comes first, the peptide text is derived from it. [ ]: non-standard residue; d: D form. The star is where a group is joined. Phe(4-Br) = N[C@@H](Cc1ccc(Br)cc1)C(=O)O; Fmoc = O=C(OCC1c2ccccc2-c2ccccc21)*; PEG6 = NCCOCCOCCOCCOCCOCCOCCC(=O)O; NMeL = CN[C@@H](CC(C)C)C(=O)O; Nle = CCCC[C@H](N)C(=O)O; Aib = CC(C)(N)C(=O)O

Columns and labels:
[1] = tested on: recombinant human neprilysin (rhNEP, Sino Biological); assay: rhNEP diluted in Tris buffer (100 mM Tris, 100 mM NaCl, 10 μM ZnCl2, pH 7.5), 3.1 nM final concentration; settings: 37° C., up to 72 h
[2] = human blood plasma (20 μL of plasma); settings: 37° C., up to 60 min
[3] = target: neprilysin (NEP) (Homo sapiens, UniProt P08473); assay: Neprilysin degradation assay (LC-MS, quantitative); settings: human, pH 7.5
Method: This experiment compared the in vitro NEP stability of the Arg/Leu peptides of the embodiments to native apelin isoforms and their A2 substituted counterparts. Peptides were incubated with recombinant human NEP (rhNEP, Sino Biological) at 37° C. for up to 72 h, and the extent of degradation was analyzed via LC-MS because of the overlapping elution patterns of peptide fragments. […] (McKinnie, S. M. K., et al. ChemBioChem: 17, 1495-1498 (2016)). […] (Dion, N., et al., Biochem. J.: 311, 623-627 (1995); Bateman Jr., R. C., et al., J. Biol. Chem.: 264, 6151-6157 (1989); McMurray, J. J. et al., J. Med.: 371, 993-1004 (2014)).
Apelin peptides were dissolved in Milli-Q water (1 mM). Recombinant human neprilysin (rhNEP, Sino Biological) was reconstituted in Tris buffer (100 mM Tris, 100 mM NaCl, 10 μM ZnCl2, pH 7.5). To initiate the assay, rhNEP was diluted in Tris buffer (3.1 nM final concentration), and preincubated at 37° C. for 10 minutes prior to the addition of 5 μL of apelin peptide (1 mM) and 1.5 μL internal standard dansyl-Tyr-Val-Gly-OH (1 mM). Aliquots (10 μL) were removed at 0, 1, 4, 24, and 72 h, quenched with 0.1 M EDTA (10 μL), diluted to 100 μL with Milli-Q water and analyzed by LC-MS. Assays were performed in triplicate (n=3) for each time point. Integrated peak areas of the parent apelin peptide and internal standard derived from LC-MS analyses, were extracted using Mass Hunter software (version B.04.00) and compared in positive extracted ion count modus (+EIC, extracted-ion chromatogram). […] (apelin:dansyl-YVG), to the same ratio at the different assay time points. The decrease in apelin:dansyl-YVG ratio was converted to a percentage of cleaved peptide over time.
The extent of degradation was analyzed via LC-MS because of the overlapping elution patterns of peptide fragments (NEP).
Native apelin-17 (2) and apelin peptides 5, 54, 56, 57, 58 and 59 were dissolved in Milli-Q water (1 mM). Recombinant human neprilysin (rhNEP, Sino Biological) was reconstituted in Tris buffer (100 mM Tris, 100 mM NaCl, 10 μM ZnCl2, pH 7.5). To initiate the assay, rhNEP was diluted in Tris buffer (3.1 nM final concentration) and preincubated at 37° C. for 10 min prior to the addition of 5 μL of apelin peptide (1 mM) and 1.5 μL of internal standard dansyl-Tyr-Val-Gly-OH (1 mM). Aliquots (10 μL) were removed at 0, 1, 4, 24, and 72 h, quenched with 0.1 M EDTA (10 μL), diluted to 100 μL with Milli-Q water, and analyzed by LC-MS. Assays were performed in triplicate (n=3) for each time point. Integrated peak areas of the parent apelin peptide and internal standard derived from LC-MS analyses were extracted using Mass Hunter software (version B.04.00) and compared in positive extracted ion count modus (+EIC). The extent of proteolysis was determined by comparing the initial (0 h) ratio of the integrated extracted ions of the parent apelin peptide to the internal dansyl-YVG standard (apelin/dansyl-YVG) to the same ratio at the different assay time points. The decrease in apelin/dansyl-YVG ratio was converted to a percentage of cleaved peptide over time.

[4] = target: T1, KLKB1 (Homo sapiens, UniProt P03952); assay: In vitro KLKB1 stability (half-life); type: in vitro ADME; design: purchased Novoprotein; settings: human; rhKLKB1, 37° C.; read-out: t1/2 (rhKLKB1, h) (converted)
[5] = target: Recombinant Human Neprilysin (Homo sapiens, UniProt P08473); assay: Neprilysin qualitative cleavage assay (MALDI-TOF); settings: rhNEP 2 ng/μL, 37° C., first degradation products by MALDI-TOF
Method: Native apelin-17 (2) and apelin peptides 5, 54, 56, 57, 58 and 59 were dissolved in Milli-Q water (1 mM). Recombinant Human Neprilysin (rhNEP, Sino Biological) was reconstituted in Tris buffer (100 mM Tris, 100 mM NaCl, 10 mM ZnCl2, pH 7.5). To initiate the assays, rhNEP was diluted in Tris buffer to a 2 ng/μL final concentration, and pre-incubated at 37° C. for 10 minutes prior to the addition of 5 μL of apelin peptide (1 mM). Aliquots (1 μL) were taken at 1, 2, 4, 6, 12, 24, 36, and 48 hours and analyzed with MALDI-TOF mass spectrometry to qualitatively determine the time point at which degradation products could be observed.

[6] = target: Human plasma kallikrein KLKB1 (Homo sapiens, UniProt P03952); assay: Plasma kallikrein KLKB1 qualitative cleavage assay (MALDI-TOF); settings: KLKB1, 37° C., first degradation products by MALDI-TOF
Method: Native apelin-17 (2) and apelin peptides 5, 56, 57, 58 and 59 were dissolved in Milli-Q water (1 mM). Human plasma kallikrein KLKB1 were each reconstituted in Tris buffer (100 mM TrisHCl, 10 mM CaCl2), 150 mM NaCl) and diluted with Tris buffer (50 mM TrisHCl, 250 mM NaCl) to give a KLKB1 concentration of […]. The KLKB1 enzyme was then preincubated at 37° C. for 10 minutes prior to the addition of 5 μL of apelin peptide (1 mM). Aliquots (1 μL) were taken at 1, 2, 4, 6, 12, 24, 36, and 48 hours and analyzed with MALDI-TOF mass spectrometry to qualitatively determine the time point at which degradation products could be observed (Table 4).

[7] = tested on: KLKB1 (rhKLKB1, Novoprotein); assay: Human plasma kallikrein KLKB1 in Tris buffer, KLKB1 concentration of 2 ng/pL; settings: 37° C., up to 48 hours
[8] = tested on: neprilysin (rhNEP); assay: recombinant human NEP (rhNEP, Sino Biological) in Tris buffer (100 mM Tris, 100 mM NaCl, 10 μM ZnCl2, pH 7.5); settings: 37° C, up to 72 h
[9] = target: T1, KLKB1; settings: enzyme KLKB1, data from Gozzo et al. 2006; cited from earlier work

T1 sequence (P03952 20-638): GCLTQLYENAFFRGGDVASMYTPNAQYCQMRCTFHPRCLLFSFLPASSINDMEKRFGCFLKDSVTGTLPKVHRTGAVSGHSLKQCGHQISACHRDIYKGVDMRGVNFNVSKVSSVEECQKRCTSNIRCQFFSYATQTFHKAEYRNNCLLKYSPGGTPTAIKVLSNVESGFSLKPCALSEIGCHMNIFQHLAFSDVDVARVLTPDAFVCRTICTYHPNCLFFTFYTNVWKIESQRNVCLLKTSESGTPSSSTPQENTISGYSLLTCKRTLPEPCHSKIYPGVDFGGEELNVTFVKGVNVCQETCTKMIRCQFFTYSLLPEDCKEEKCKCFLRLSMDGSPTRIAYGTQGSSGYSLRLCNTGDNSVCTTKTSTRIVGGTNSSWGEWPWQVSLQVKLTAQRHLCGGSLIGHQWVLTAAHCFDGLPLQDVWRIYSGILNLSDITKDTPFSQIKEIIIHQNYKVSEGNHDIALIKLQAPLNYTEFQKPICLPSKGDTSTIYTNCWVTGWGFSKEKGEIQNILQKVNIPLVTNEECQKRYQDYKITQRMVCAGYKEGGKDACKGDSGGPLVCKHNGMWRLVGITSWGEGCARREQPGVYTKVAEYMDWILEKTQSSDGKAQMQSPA
Human plasma kallikrein KLKB1, sequence (P03952 20-638): as above
Recombinant Human Neprilysin, sequence (P08473 whole entry): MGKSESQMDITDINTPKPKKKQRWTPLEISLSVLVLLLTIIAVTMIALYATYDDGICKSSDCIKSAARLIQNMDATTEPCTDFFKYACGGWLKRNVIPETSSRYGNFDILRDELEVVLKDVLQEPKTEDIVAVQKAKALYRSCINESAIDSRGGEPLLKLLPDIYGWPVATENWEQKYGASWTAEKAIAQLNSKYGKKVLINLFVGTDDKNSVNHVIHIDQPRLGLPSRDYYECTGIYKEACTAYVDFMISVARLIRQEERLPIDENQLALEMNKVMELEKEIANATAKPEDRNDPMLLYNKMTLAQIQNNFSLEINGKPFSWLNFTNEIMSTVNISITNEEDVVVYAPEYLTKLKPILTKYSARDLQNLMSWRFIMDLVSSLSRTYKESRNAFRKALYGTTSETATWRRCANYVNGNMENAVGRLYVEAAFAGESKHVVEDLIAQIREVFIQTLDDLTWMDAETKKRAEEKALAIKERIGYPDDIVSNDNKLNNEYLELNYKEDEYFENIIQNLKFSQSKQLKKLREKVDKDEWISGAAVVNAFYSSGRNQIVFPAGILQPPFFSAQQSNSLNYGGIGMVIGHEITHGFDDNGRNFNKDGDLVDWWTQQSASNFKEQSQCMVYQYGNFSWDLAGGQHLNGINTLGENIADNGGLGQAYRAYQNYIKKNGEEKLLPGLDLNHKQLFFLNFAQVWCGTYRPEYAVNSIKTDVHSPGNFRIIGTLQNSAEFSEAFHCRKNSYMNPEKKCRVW
neprilysin (NEP), sequence (P08473 whole entry, the tested form may be a part, canonical isoform): as the sequence (P08473 whole entry) above

Molecule: Lys-Phe-Arg-Arg-Gln-Arg-Pro-azaArg-Leu-Ser-His-Lys-Gly-Pro-Nle-Aib-paraBrPhe
- cleaved bond [1]: Nle15-Aib16, minor
- not cleaved [2]: 94 ± 3 % apelin at 60 min

Molecule: CCCC[C@H](NC(=O)[C@@H]1CCCN1C(=O)CNC(=O)[C@H](CCCCN)NC(=O)[C@H](Cc1cnc[nH]1)NC(=O)[C@H](CO)NC(=O)[C@H](CC(C)C)NC(=O)[C@H](CCCNC(=N)N)NC(=O)[C@@H]1CCCN1C(=O)[C@H](CCCNC(=N)N)NC(=O)[C@H](CCC(N)=O)NC(=O)[C@H](CCCNC(=N)N)NC(=O)[C@H](CCCNC(=N)N)NC(=O)[C@H](Cc1ccccc1)NC(=O)[C@H](CCCCN)NC(=O)CCOCCOCCOCCOCCOCCOCCNC(=O)OCC1c2ccccc2-c2ccccc21)C(=O)NC(C)(C)C(=O)N[C@@H](Cc1ccc(Br)cc1)C(=O)O [Peptide 57] ({Fmoc-PEG6}-KFRRQRPRLSHKGP[Nle][Aib][Phe(4-Br)]-OH)
- half-life [3]: > 30 h
- half-life [4]: 1.4 h
- Degradation Onset Timepoint with NEP [5]: 12 h
- Degradation Onset Timepoint with KLKB1 [6]: 1 h

Molecule: Lys-Phe-Arg-Arg-Gln-Arg-Pro-Arg-Leu-Ser-His-Lys-Gly-Pro-Nle-Aib-paraBrPhe
- cleaved bond [7]: Arg3-Arg4, <30 min
- fragment found [2]: 1-3 and 4-17

Molecule: pGlu-Arg-Pro-Arg-D-Leu-Ser-His-Lys-Gly-Pro-Nle-Aib-paraBrPhe
- cleaved bond [1]: Nle11-Aib12, minor
- cleaved bond [8]: Nle11-Aib12, minor

Molecule: Lys-Phe-Arg-Arg-Gln-Arg-Pro-Arg-D-Leu-Ser-His-Lys-Gly-Pro-Nle-Aib-paraBrPhe
- cleaved bond [1]: Nle15-Aib16, minor
- cleaved bond [8]: Nle15-Aib16, minor

Molecule: CCCC[C@H](NC(=O)[C@@H]1CCCN1C(=O)CNC(=O)[C@H](CCCCN)NC(=O)[C@H](Cc1cnc[nH]1)NC(=O)[C@H](CO)NC(=O)[C@H](CC(C)C)N(C)C(=O)[C@H](CCCNC(=N)N)NC(=O)[C@@H]1CCCN1C(=O)[C@H](CCCNC(=N)N)NC(=O)[C@H](CCC(N)=O)NC(=O)[C@H](CCCNC(=N)N)NC(=O)[C@H](CCCNC(=N)N)NC(=O)[C@H](Cc1ccccc1)NC(=O)[C@H](CCCCN)NC(=O)CCOCCOCCOCCOCCOCCOCCNC(=O)OCC1c2ccccc2-c2ccccc21)C(=O)NC(C)(C)C(=O)N[C@@H](Cc1ccc(Br)cc1)C(=O)O [Peptide 59] ({Fmoc-PEG6}-KFRRQRPR[NMeL]SHKGP[Nle][Aib][Phe(4-Br)]-OH)
- half-life [3]: > 30 h
- half-life [4]: 2.9 h
- Degradation Onset Timepoint with NEP [5]: >36 h
- Degradation Onset Timepoint with KLKB1 [6]: 2 h

B1: Kininogen: KLKB1 substrate, kinetic data from Gozzo et al. (protein, UniProt P01042 19-644, looked up)
Kininogen-1: QESQSEEIDCNDKDLFKAVDAALKKYNSQNQSNNQFVLYRITEATKTVGSDTFYSFKYEIKEGDCPVQSGKTWQDCEYKDAAKAATGECTATVGKRSSTKFSVATQTCQITPAEGPVVTAQYDCLGCVHPISTQSPDLEPILRHGIQYFNNNTQHSSLFMLNEVKRAQRQVVAGLNFRITYSIVQTNCSKENFLFLTPDCKSLWNGDTGECTDNAYIDIQLRIASFSQNCDIYPGKDFVQPPTKICVGCPRDIPTNSPELEETLTHTITKLNAENNATFYFKIDNVKKARVQVVAGKKYFIDFVARETTCSKESNEELTESCETKKLGQSLDCNAEVYVVPWEKKIYPTVNCQPLGMISLMKRPPGFSPFRSSRIGEIKEETTVSPPHTSMAPAQDEERDSGKEQGHTRRHDWGHEKQRKHNLGHGHKHERDQGHGHQRGHGLGHGHEQQHGLGHGHKFKLDDDLEHQGGHVLDHGHKHKHGHGHGKHKNKGKKNGKHNGWKTEHLASSSEDSTTPSAQTQEKTEGPTPIPSLAKPGVTVTFSDFQDSDLIATMMPPISPAPIQSDDDWIPDIQIDPNGLSFNPISDFPDTTSPKCPGRPWKSVSEINPTTQMKESYYFDLTDGLS
- Km [9]: 0.75 µM
- kcat [9]: 0.031 s⁻¹
